Reference: patent US20210255193A1, “LYSINE REACTIVE PROBES AND USES THEREOF” (The Scripps Research Institute, priority 2017, published 2021)
Each block holds one molecule with its values, some of them ahead of it.

Key:
Assay in all cases: competitive isoTOP-ABPP
Format in all cases: binding
[1] = target: T1, DNMT1 DNA (cytosine-5)-methyltransferase 1 (Homo sapiens, UniProt P26358)
T1 construct: isoTOP-ABPP experiments performed in cell lysates (in vitro); endogenous in cells; host or cells: soluble proteome of human cancer cell lines (MDA-MB-231; Ramos and Jurkat also prepared)
T1 sequence (P26358 whole entry): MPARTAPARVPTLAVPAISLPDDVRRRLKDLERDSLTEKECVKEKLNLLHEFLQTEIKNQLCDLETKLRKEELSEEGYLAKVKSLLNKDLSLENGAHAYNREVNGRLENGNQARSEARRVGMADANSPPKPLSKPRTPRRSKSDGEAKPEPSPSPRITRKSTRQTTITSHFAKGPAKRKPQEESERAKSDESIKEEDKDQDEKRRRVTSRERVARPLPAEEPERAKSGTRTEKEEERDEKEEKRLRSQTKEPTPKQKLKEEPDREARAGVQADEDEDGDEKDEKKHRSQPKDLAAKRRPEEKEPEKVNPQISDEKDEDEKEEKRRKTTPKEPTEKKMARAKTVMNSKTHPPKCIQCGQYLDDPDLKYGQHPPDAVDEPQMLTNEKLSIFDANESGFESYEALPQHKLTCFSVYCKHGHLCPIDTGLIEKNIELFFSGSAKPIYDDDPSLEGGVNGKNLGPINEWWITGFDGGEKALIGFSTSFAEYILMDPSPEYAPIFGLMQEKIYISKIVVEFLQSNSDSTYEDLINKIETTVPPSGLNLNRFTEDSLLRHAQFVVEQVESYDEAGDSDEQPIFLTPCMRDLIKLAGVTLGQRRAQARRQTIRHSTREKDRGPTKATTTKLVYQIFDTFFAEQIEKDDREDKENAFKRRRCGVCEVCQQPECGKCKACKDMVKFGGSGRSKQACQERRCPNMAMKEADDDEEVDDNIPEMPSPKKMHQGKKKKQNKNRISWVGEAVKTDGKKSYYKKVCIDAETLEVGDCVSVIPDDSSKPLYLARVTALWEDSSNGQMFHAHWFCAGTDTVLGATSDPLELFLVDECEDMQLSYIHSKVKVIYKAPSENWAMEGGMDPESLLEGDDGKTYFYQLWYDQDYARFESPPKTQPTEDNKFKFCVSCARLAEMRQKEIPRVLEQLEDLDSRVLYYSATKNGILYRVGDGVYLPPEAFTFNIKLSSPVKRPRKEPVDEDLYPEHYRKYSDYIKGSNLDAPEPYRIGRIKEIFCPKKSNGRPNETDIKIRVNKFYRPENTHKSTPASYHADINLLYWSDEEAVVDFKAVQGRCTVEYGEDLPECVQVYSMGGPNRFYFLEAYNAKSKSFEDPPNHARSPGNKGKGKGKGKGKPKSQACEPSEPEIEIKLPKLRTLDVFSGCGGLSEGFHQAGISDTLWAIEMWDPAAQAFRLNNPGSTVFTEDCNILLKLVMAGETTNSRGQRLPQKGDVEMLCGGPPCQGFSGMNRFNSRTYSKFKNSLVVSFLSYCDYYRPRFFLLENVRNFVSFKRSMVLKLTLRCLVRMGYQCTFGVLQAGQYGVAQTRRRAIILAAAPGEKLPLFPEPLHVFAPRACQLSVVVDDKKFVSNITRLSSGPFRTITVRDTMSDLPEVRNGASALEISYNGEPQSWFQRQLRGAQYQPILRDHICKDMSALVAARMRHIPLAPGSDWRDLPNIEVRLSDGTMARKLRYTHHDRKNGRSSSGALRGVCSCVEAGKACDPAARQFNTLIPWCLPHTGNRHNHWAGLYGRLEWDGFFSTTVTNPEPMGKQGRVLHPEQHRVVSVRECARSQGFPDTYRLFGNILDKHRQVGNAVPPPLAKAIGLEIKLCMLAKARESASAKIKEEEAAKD
Procedure, shortened: (§1)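 Readout: isotopic light/heavy MS1 peak-area ratio (R, DMSO heavy over compound light), median across peptides sharing a modified lysine. Lysate received fragment (activated esters 50 μM, guanidinylating agents 100 μM final) or DMSO, then 0.1 mM STP-alkyne probe for 1 h at ambient temperature.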

[2] = target: T2, DTYMK Thymidylate kinase (Homo sapiens, UniProt P23919); conditions: 50 uM_231_sol_in vitro
T2 construct: isoTOP-ABPP experiments performed in cell lysates (in vitro); endogenous in cells; host or cells: soluble proteome of human cancer cell lines (MDA-MB-231; Ramos and Jurkat also prepared)
T2 sequence (P23919 1-212): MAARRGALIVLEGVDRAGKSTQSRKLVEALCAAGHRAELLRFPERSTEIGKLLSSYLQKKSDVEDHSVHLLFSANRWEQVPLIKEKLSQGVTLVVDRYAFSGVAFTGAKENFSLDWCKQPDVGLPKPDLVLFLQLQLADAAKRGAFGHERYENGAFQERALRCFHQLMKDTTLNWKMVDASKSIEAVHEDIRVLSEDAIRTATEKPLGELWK
Procedure, shortened: as §1

[3] = target: T3, FAM136A Protein FAM136A (Homo sapiens, UniProt Q96C01); conditions: for isoTOP-ABPP ratio (R) at liganded lysine Q96C01_K99 / isoTOP-ABPP reactivity ratio at lysine Q96C01_K99: 50 uM, in vitro; for isoTOP-ABPP ratio (R) at liganded lysine Q96C01_K99: sol, 231; for isoTOP-ABPP reactivity ratio at lysine Q96C01_K99: 231 sol
T3 construct: isoTOP-ABPP experiments performed in cell lysates (in vitro); endogenous in cells; host or cells: soluble proteome of human cancer cell lines (MDA-MB-231; Ramos and Jurkat also prepared)
T3 sequence (Q96C01 whole entry): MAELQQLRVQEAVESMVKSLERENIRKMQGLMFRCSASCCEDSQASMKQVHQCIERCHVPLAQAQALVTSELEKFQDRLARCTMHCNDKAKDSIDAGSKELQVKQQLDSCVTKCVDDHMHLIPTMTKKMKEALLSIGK
Procedure, shortened: as §1

[4] = target: T4, NLN Neurolysin, mitochondrial (Homo sapiens, UniProt Q9BYT8); conditions: for isoTOP-ABPP ratio (R) at liganded lysine Q9BYT8_K253: sol, 231
T4 construct: isoTOP-ABPP experiments performed in cell lysates (in vitro); endogenous in cells; host or cells: soluble proteome of human cancer cell lines (MDA-MB-231; Ramos and Jurkat also prepared)
T4 sequence (Q9BYT8 38-704): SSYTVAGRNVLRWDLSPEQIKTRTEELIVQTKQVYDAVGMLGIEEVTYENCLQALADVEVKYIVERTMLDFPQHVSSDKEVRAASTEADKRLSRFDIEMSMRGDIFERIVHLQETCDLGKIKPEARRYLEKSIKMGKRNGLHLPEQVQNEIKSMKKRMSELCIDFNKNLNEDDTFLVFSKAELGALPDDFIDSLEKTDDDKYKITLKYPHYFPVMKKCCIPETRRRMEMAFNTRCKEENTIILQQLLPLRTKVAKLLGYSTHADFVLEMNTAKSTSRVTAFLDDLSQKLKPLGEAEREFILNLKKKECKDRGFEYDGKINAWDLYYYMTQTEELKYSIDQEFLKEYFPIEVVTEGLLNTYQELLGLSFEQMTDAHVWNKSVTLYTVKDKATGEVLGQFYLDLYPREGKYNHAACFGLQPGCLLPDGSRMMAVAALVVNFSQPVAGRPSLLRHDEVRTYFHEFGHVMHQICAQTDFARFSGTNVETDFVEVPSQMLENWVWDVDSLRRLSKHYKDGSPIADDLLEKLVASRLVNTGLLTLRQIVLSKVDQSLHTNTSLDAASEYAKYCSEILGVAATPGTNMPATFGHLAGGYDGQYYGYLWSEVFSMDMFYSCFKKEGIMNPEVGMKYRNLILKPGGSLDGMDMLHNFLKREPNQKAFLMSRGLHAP
Procedure, shortened: as §1

[5] = target: T5, AKR1C3 Aldo-keto reductase family 1 member C3 (Homo sapiens, UniProt P42330); conditions: for isoTOP-ABPP ratio (R) at liganded lysine P42330_K270: sol, 231; for isoTOP-ABPP ratio, lysine P42330_K270: possible other lysine P52895_K270, P17516_K270, Q04828_K270
T5 construct: isoTOP-ABPP experiments performed in cell lysates (in vitro); endogenous in cells; host or cells: soluble proteome of human cancer cell lines (MDA-MB-231; Ramos and Jurkat also prepared)
T5 sequence (P42330 1-323): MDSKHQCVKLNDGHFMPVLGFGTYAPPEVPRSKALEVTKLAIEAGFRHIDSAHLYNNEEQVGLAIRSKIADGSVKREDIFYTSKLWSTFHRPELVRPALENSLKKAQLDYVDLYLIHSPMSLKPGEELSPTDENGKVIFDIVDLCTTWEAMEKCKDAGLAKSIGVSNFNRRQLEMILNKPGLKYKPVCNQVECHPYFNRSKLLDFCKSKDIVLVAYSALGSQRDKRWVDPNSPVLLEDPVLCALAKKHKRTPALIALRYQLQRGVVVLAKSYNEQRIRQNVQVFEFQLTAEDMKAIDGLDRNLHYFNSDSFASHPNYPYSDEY
Procedure, shortened: as §1

[6] = target: T6, FH Fumarate hydratase, mitochondrial (Homo sapiens, UniProt P07954); conditions: for isoTOP-ABPP ratio, lysine P07954_K311: 50 uM_231_sol_in vitro
T6 construct: isoTOP-ABPP experiments performed in cell lysates (in vitro); endogenous in cells; host or cells: MDA-MB-231 soluble lysate
T6 sequence (P07954 45-510): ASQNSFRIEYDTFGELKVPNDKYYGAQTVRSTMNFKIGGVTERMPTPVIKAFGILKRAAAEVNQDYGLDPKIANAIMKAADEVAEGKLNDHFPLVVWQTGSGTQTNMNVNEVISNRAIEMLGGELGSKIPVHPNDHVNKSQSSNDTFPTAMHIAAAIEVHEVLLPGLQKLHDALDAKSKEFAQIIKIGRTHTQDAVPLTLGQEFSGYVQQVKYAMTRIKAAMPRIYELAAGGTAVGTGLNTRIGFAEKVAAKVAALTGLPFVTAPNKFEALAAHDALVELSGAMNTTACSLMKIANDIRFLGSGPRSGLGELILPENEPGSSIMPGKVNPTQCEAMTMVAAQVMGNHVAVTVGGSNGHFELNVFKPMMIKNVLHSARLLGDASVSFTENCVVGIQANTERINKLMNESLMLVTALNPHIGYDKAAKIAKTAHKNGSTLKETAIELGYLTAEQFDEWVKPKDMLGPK
Procedure, shortened: as §1

SMILES: O=C(CCc1cn(-c2ccccc2)nc1-c1ccccc1)Oc1c(F)c(F)c(F)c(F)c1F [fragment 19, Pentafluorophenyl 3-(1,3-diphenyl-1H-pyrazol-4-yl)propanoate]
- R value (DMSO/fragment) for probe 1 labeling ([4]; Q9BYT8_K253, 50 uM, 231 sol, in vitro): 1.0

SMILES: O=C(Oc1ccc([N+](=O)[O-])cc1[N+](=O)[O-])C(c1ccccc1)(c1ccccc1)c1ccccc1 [fragment 42, 2,4-Dinitrophenyl 2,2,2-triphenylacetate]
- isoTOP-ABPP ratio (R) at liganded lysine P42330_K270 ([5]; 50 uM, in vitro): 0.9
- isoTOP-ABPP ratio (R) at liganded lysine Q96C01_K99 [3]: 0.9
- isoTOP-ABPP ratio (R) at liganded lysine Q9BYT8_K253 ([4]; 50 uM, in vitro): 0.8

SMILES: O=C(Oc1ccc([N+](=O)[O-])cc1[N+](=O)[O-])C1CCN(C(=O)OCc2ccccc2)CC1 [fragment 34, 1-Benzyl 4-(2,4-dinitrophenyl) piperidine-1,4-dicarboxylate]
- isoTOP-ABPP ratio (R) at liganded lysine P42330_K270 ([5]; 50 uM, in vitro): 1.1
- isoTOP-ABPP ratio (R) at liganded lysine Q96C01_K99 [3]: 1.2

SMILES: NC(=O)c1cc(C(F)(F)F)cc(C(F)(F)F)c1 [fragment 51, reference compound]
- isoTOP-ABPP ratio, lysine P42330_K270 ([5]; 50 uM_231_sol_in vitro): 0.8
- isoTOP-ABPP ratio, lysine P07954_K311 [6]: 1.0

SMILES: Cn1cc(CC(=O)Oc2ccc([N+](=O)[O-])cc2[N+](=O)[O-])c2ccccc21 [fragment 32, 2,4-Dinitrophenyl 2-(1-methyl-1H-indol-3-yl)acetate]
- isoTOP-ABPP reactivity ratio at lysine P26358_K45 ([1]; 50 uM, 231 sol, in vitro): 1.0
- isoTOP-ABPP reactivity ratio at lysine Q96C01_K99 [3]: 0.9
- isoTOP-ABPP reactivity ratio at lysine Q9BYT8_K253 ([4]; 50 uM, 231 sol, in vitro): 1.7

SMILES: O=C(CCc1ccc2c(c1)OCO2)Oc1ccc([N+](=O)[O-])cc1[N+](=O)[O-] [fragment 45, 2,4-Dinitrophenyl 3-(benzo[d][1,3]dioxol-5-yl)propanoate]
- isoTOP-ABPP ratio, lysine P42330_K270 ([5]; 50 uM_231_sol_in vitro): 0.8
- isoTOP-ABPP ratio, lysine P26358_K45 ([1]; 50 uM_231_sol_in vitro): 1.0
- isoTOP-ABPP ratio, lysine Q96C01_K99 ([3]; 50 uM_231_sol_in vitro): 1.0
- isoTOP-ABPP ratio, lysine P07954_K311 [6]: 1.8
- isoTOP-ABPP ratio, lysine Q9BYT8_K253 ([4]; 50 uM_231_sol_in vitro): 1.3

SMILES: O=C(CCc1coc2cc(F)ccc2c1=O)Oc1ccc([N+](=O)[O-])cc1[N+](=O)[O-] [fragment 36, 2,4-Dinitrophenyl 3-(7-fluoro-4-oxo-4H-chromen-3-yl)propanoate]
- isoTOP-ABPP ratio (R) at liganded lysine P42330_K270 ([5]; 50 uM, in vitro): 0.6
- isoTOP-ABPP ratio (R) at liganded lysine P26358_K45 ([1]; 50 uM, in vitro, sol, 231): 0.8
- isoTOP-ABPP ratio (R) at liganded lysine Q96C01_K99 [3]: 0.8

SMILES: O=C(CC12CC3CC(CC(C3)C1)C2)Oc1ccc([N+](=O)[O-])cc1[N+](=O)[O-] [fragment 38, 2,4-Dinitrophenyl 2-(adamantan-1-yl)acetate]
- isoTOP-ABPP ratio (R) at liganded lysine P42330_K270 ([5]; 50 uM, in vitro): 0.9
- isoTOP-ABPP ratio (R) at liganded lysine Q9BYT8_K253 ([4]; 50 uM, in vitro): 0.8

Next, values leading:

- isoTOP-ABPP ratio, lysine P26358_K45 ([1]; 50 uM_231_sol_in vitro): 1.1
- isoTOP-ABPP ratio, lysine P23919_K118 [2]: 0.6
- isoTOP-ABPP ratio, lysine Q96C01_K99 ([3]; 50 uM_231_sol_in vitro): 5.5
SMILES: O=C(Oc1c(F)c(F)cc(F)c1F)c1cc(C(F)(F)F)cc(C(F)(F)F)c1 [fragment 48, 2,3,5,6-Tetrafluorophenyl 3,5-bis(trifluoromethyl)benzoate]

- isoTOP-ABPP reactivity ratio at lysine Q96C01_K99 [3]: 0.9
- isoTOP-ABPP reactivity ratio at lysine P07954_K311 ([6]; 50 uM, 231 sol, in vitro): 2.4
- isoTOP-ABPP reactivity ratio at lysine Q9BYT8_K253 ([4]; 50 uM, 231 sol, in vitro): 1.2
SMILES: O=C(CCc1coc2cc(F)ccc2c1=O)Oc1c(F)c(F)c(F)c(F)c1F [fragment 26, Pentafluorophenyl 3-(7-fluoro-4-oxo-4H-chromen-3-yl)propanoate]

- isoTOP-ABPP reactivity ratio at lysine P42330_K270 ([5]; 50 uM, 231 sol, in vitro): 2.7
SMILES: O=C(CN1C(=O)c2ccccc2C1=O)Oc1c(F)c(F)c(F)c(F)c1F [fragment 27, Pentafluorophenyl 2-(1,3-dioxoisoindolin-2-yl)acetate]

- isoTOP-ABPP ratio, lysine P42330_K270 ([5]; 100 uM_231_sol_in vitro): 0.8
- isoTOP-ABPP ratio, lysine P26358_K45 ([1]; 100 uM_231_sol_in vitro): 1.3
- isoTOP-ABPP ratio, lysine Q96C01_K99 ([3]; 100 uM_231_sol_in vitro): 1.3
SMILES: COC(=O)NC(=NC(=O)OCC1c2ccccc2-c2ccccc21)n1cccn1 [fragment 49, N-Methoxycarbonyl-N′-9-fluorenylmethoxycarbonyl-pyrazole-1-carboxamidine]
